# Square brackets hold non-standard residues; d marks the D form. Peptide text beside a SMILES is read from it. * marks the point of attachment. Dab(3S-OH) = NC[C@H](O)[C@H](N)C(=O)O; 4Pal = N[C@@H](Cc1ccncc1)C(=O)O; ΔZArg = N=C(N)NCC/C=C(\N)C(=O)O; Cit = NC(=O)NCCC[C@H](N)C(=O)O; aThr = C[C@H](O)[C@H](N)C(=O)O; AllylGly = C=CC[C@H](N)C(=O)O; hLys = NCCCCC[C@H](N)C(=O)O; dOrn = NCCC[C@@H](N)C(=O)O; NH(CH2)4NH2 = NCCCCN*
# Tests used:
# Experiment in all cases: MIC, broth microdilution (CLSI), reference strain
# Conditions in all cases: CAMHB
# [1] = test system: Staphylococcus aureus ATCC 13709
# [2] = test system: Pseudomonas aeruginosa ATCC 27853
# [3] = test system: Acinetobacter baumannii ATCC 19606
# [4] = test system: Escherichia coli ATCC 25922
Structure (SMILES),Sa: MIC Staphylococcus aureus ATCC 13709 [1],Pa: MIC Pseudomonas aeruginosa ATCC 27853 [2],Ab: MIC Acinetobacter baumannii ATCC 19606 [3],Ec: MIC Escherichia coli ATCC 25922 [4]
C[C@H](NC(=O)[C@@H](NC(=O)[C@@H](N)CCCCN)[C@@H](O)CN)C(=O)NCC(=O)N[C@H](CCCN)C(=O)N1CCC[C@H]1C(=O)N[C@@H](Cc1ccncc1)C(=O)N[C@@H](CCCCN)C(=O)N/C(=C\CCNC(=N)N)C(=O)O [24.108] (H-K[Dab(3S-OH)]AG[dOrn]P[4Pal]K[ΔZArg]-OH),+ (≤32 μg/mL),− (>32 μg/mL),− (>32 μg/mL),− (>32 μg/mL)
C[C@H](NC(=O)[C@@H](NC(=O)[C@@H](N)CCCCN)[C@@H](O)CN)C(=O)NCC(=O)N[C@H](CCCN)C(=O)N1CCC[C@H]1C(=O)N[C@H](C(=O)N[C@@H](CCCCN)C(=O)N/C(=C\CCNC(=N)N)C(=O)O)[C@H](C)O [24.110] (H-K[Dab(3S-OH)]AG[dOrn]P[aThr]K[ΔZArg]-OH),+ (≤32 μg/mL),− (>32 μg/mL),− (>32 μg/mL),− (>32 μg/mL)
C=CC[C@H](NC(=O)[C@@H]1CCCN1C(=O)[C@@H](CCCN)NC(=O)CNC(=O)[C@H](C)NC(=O)[C@@H](NC(=O)[C@@H](N)CCCCN)[C@@H](O)CN)C(=O)N[C@@H](CCCCN)C(=O)N/C(=C\CCNC(=N)N)C(=O)O [24.111] (H-K[Dab(3S-OH)]AG[dOrn]P[AllylGly]K[ΔZArg]-OH),++ (≤8 μg/mL),− (>32 μg/mL),− (>32 μg/mL),+ (≤32 μg/mL)
C[C@H](NC(=O)[C@@H](NC(=O)[C@@H](N)CCCCN)[C@@H](O)CN)C(=O)NCC(=O)N[C@H](CCCN)C(=O)N1CCC[C@H]1C(=O)N[C@@H](CCCNC(N)=O)C(=O)N[C@@H](CCCCN)C(=O)N/C(=C\CCNC(=N)N)C(=O)O [24.116] (H-K[Dab(3S-OH)]AG[dOrn]P[Cit]K[ΔZArg]-OH),+ (≤32 μg/mL),− (>32 μg/mL),− (>32 μg/mL),− (>32 μg/mL)
C[C@H](NC(=O)[C@@H](NC(=O)[C@@H](N)CCCCN)[C@@H](O)CN)C(=O)NCC(=O)N[C@H](CCCN)C(=O)N1CCC[C@H]1C(=O)N[C@@H](CCC(N)=O)C(=O)N[C@@H](CCCCN)C(=O)N/C(=C\CCNC(=N)N)C(=O)O [24.117] (H-K[Dab(3S-OH)]AG[dOrn]PQK[ΔZArg]-OH),+ (≤32 μg/mL),− (>32 μg/mL),− (>32 μg/mL),− (>32 μg/mL)
C[C@H](NC(=O)[C@@H](NC(=O)[C@@H](N)CCCCN)[C@@H](O)CN)C(=O)NCC(=O)N[C@H](CCCN)C(=O)N1CCC[C@H]1C(=O)N[C@@H](CCC(=O)O)C(=O)N[C@@H](CCCCN)C(=O)N/C(=C\CCNC(=N)N)C(=O)N[C@@H](CCCCN)C(=O)NCCCCN [24.118] (H-K[Dab(3S-OH)]AG[dOrn]PEK[ΔZArg]K-{NH(CH2)4NH2}),++ (≤8 μg/mL),− (>32 μg/mL),− (>32 μg/mL),− (>32 μg/mL)
COC(=O)CC[C@H](NC(=O)[C@@H]1CCCN1C(=O)[C@@H](CCCN)NC(=O)CNC(=O)[C@H](C)NC(=O)[C@@H](NC(=O)[C@@H](N)CCCCN)[C@@H](O)CN)C(=O)N[C@@H](CCCCN)C(=O)N/C(=C\CCNC(=N)N)C(=O)O [24.120] (H-K[Dab(3S-OH)]AG[dOrn]PE(OMe)K[ΔZArg]-OH),− (>32 μg/mL),− (>32 μg/mL),− (>32 μg/mL),+ (≤32 μg/mL)
C[C@H](NC(=O)[C@@H](NC(=O)[C@@H](N)CCCCN)[C@@H](O)CN)C(=O)NCC(=O)N[C@H](CCCN)C(=O)N1CCC[C@H]1C(=O)N[C@@H](Cc1cnc[nH]1)C(=O)N[C@@H](CCCCCN)C(=O)N[C@H](CCCNC(=N)N)C(N)=O [24.121] (H-K[Dab(3S-OH)]AG[dOrn]PH[hLys][dR]-NH2),++ (≤8 μg/mL),− (>32 μg/mL),− (>32 μg/mL),− (>32 μg/mL)
C[C@H](NC(=O)[C@@H](NC(=O)[C@@H](N)CCCCN)[C@@H](O)CN)C(=O)NCC(=O)N[C@H](CCCN)C(=O)N1CCC[C@H]1C(=O)N[C@@H](Cc1cnc[nH]1)C(=O)N[C@@H](CCCCN)C(=O)N[C@H](CCCNC(=N)N)C(=O)O [24.122] (H-K[Dab(3S-OH)]AG[dOrn]PHK[dR]-OH),− (>32 μg/mL),− (>32 μg/mL),− (>32 μg/mL),− (>32 μg/mL)

# Source: patent US10626144B2, “Peptide derivatives and uses thereof” (Nosopharm, priority 2014, dated 2020)
